In US9963461B2, “Phillygenin ibuprofen ester, preparation method therefor, and application thereof” (priority 2014, dated 2018):
Marks after values point to notes of the source that are not given here.

What was measured:
[1] = tested on: influenza virus; assay: Impact of the drugs on the virus-induced cytopathy (MTT); assay type: cell-based; settings: influenza virus 100 TCID50, Vero cells, about the maximal non-cytotoxic concentration, 72 hours
[2] = tested on: Coxsackie virus A16 (CoxA16); assay: as above; assay type: cell-based; settings: CoxA16 100 TCID50, Vero cells, about the maximal non-cytotoxic concentration, 72 hours
[3] = tested on: Adenovirus (AdV); assay: as above; assay type: cell-based; settings: ADV 100 TCID50, Vero cells, about the maximal non-cytotoxic concentration, 72 hours
[4] = tested on: sweat secretion of rat paw part; assay: Sweat secretion of rat paw part (coloring method); assay type: in vivo, Wistar rats; settings: 300.0 mg/kg intragastric; for Animal number of sweat points of level +: + = sweat area below about 10%; for Animal number of sweat points of level ++: ++ = sweat area about 11-40%; for Animal number of sweat points of level +++: +++ = sweat area about 41-70%; for Animal number of sweat points of level ++++: ++++ = sweat area over 71%; for Animal number of sweat points of level −: − = no sweat point
Source text: This test was designed to observe the change of sweat secretion based on the mechanism that sweat gland is distributed on the rat paw pads, and iodine and starch can have purple reaction when encountered with sweat. In the test, 350 Wistar rats were selected, with equal male and female number, weighing 120-150 g. […] The rats were placed in a self-made rat fixation bag, with the double hind limbs exposed. The dirts on the right paw was gently scrubbed clean with the cotton swab dipped with anhydrous ethanol. Besides that subcutaneous injection was used for the pilocarpine solution, intragastric administration was used for all the other groups. […] When the test was complete, statistical process was carried out according to the rank-sum test with two-sample comparison, in order to compare the difference between the groups.

[5] = tested on: beer yeast induced rat fever; assay: Beer yeast induced rat fever; assay type: in vivo, Wistar rats; settings: 300 mg/kg
Procedure: Male Wistar rats were selected, weighing 180-200 g. Before the test, WSC-411P portable digital thermometer was used to measure the normal rectal temperature twice (with certain interval for each time), and the average value of the two measurements was taken as the normal body temperature of the rat. Then 70 rats with the body temperature between 36.5° C. and 38° C. were chosen to be randomly divided into 7 groups by weight: the model (0.5% carboxymethylcellulose) group, the 2.5, 5, and 10 mg/kg phillygenin ibuprofen ester groups, the positive drug paracetamol (100 mg/kg) group, the ibuprofen group (i.e. prodrug control group, 300 mg/kg), the phillygenin group (100 mg/kg), with 10 rats for each group. Each group of rats were subjected to back subcutaneous injection with 10% fresh beer yeast suspension of 10 ml/kg to induce heat. After administration of 10% fresh beer yeast suspension for 6.0 h, phillygenin ibuprofen ester and paracetamol were both subjected to intragastric administration, and the model group was intragastrically administrated with equal volume of 0.5% carboxymethylcellulose. Rectal temperature was measured after 1 h, 2 h, 3 h and 4 h of the administration respectively. Changes in the body temperature were observed and difference between the groups was compared by inter-group t test processing through antipyretic percentage.

[6] = tested on: mice pain induced by acetic acid; assay: Analgesic test, mice writhing induced by acetic acid; assay type: in vivo, Kunming mice; settings: 300 mg/kg intragastric; within 15 min after 0.7% acetic acid
Procedure: 72 Kunming mice were randomly divided into 6 groups, with 12 mice for each group. (1) the blank normal control group (i.e. saline group, […]); (2) positive drug aspirin group (200 mg/kg); (3) ibuprofen group (300 mg/kg); (4) high dose group of phillygenin ibuprofen ester (300 mg/kg); (5) medium dose group of phillygenin ibuprofen ester (150 mg/kg); (6) low dose group of phillygenin ibuprofen ester (75 mg/kg). […] The number of mice writhings within 15 min after administration was recorded. The number of writhings was taken as the evaluation index to evaluate the analgesic effect.

[7] = tested on: rat toe swelling induced by carrageenan; assay: Rat toe swelling induced by carrageenan; assay type: in vivo, Wistar rats; settings: 300 mg/kg sublingual intravenous injection
Procedure: The test groups were administered by sublingual intravenous injection. Before the test, capillary magnification measurement method was used to measure the normal volume of the right hind foot of the rats in each group. To avoid errors, the measurement location was fixed and the operation was made by one person both before and after the administration. The average value of the two measurements was taken as the normal volume of the right hind foot of the rats before administration. […] The difference between the groups was compared by inter-group t test processing through the difference percentage (swelling ratio) of the paw volume before and after the induced rat inflammation.

[8] = after coating B liquid for 1 minute
[9] = after coating B liquid for 5 minutes
[10] = after coating B liquid for 10 minutes
[11] = after coating B liquid for 15 minutes (Table 2-4)
[12] = after coating B liquid for 15 minutes (Table 2-5)

## CC(C)Cc1ccc(C(C)C(=O)O)cc1 (centres unmarked) [Ibuprofen]
[1]
  antiviral effective rate (ER %): 75.35** %
[2]
  antiviral effective rate (ER %): 50.04%
[3]
  antiviral effective rate (ER %): 50.61%
[4]; [8]
  Animal number of sweat points of level +: 1
  Animal number of sweat points of level ++: 3
  Animal number of sweat points of level +++: 1
  Animal number of sweat points of level ++++: 5
  Animal number of sweat points of level −: 0
[4]; [9]
  Animal number of sweat points of level +: 2
  Animal number of sweat points of level ++: 1
  Animal number of sweat points of level +++: 2
  Animal number of sweat points of level ++++: 5
  Animal number of sweat points of level −: 0
[4]; [10]
  Animal number of sweat points of level +: 1
  Animal number of sweat points of level ++: 2
  Animal number of sweat points of level +++: 2
  Animal number of sweat points of level ++++: 5
  Animal number of sweat points of level −: 0
[4]; [11]
  Animal number of sweat points of level +: 1
  Animal number of sweat points of level ++: 2
  Animal number of sweat points of level +++: 2
  Animal number of sweat points of level ++++: 5
  Animal number of sweat points of level −: 0
[4]; [12]
  Animal number of sweat points of level +: 1
  Animal number of sweat points of level ++: 2
  Animal number of sweat points of level +++: 2
  Animal number of sweat points of level ++++: 5
  Animal number of sweat points of level −: 0
[5]; 1 h after administration
  Body temperature (° C.): 39.21 ± 0.11 °C
  antipyretic percentage (%): −1.05 ± 0.54 %
[5]; 2 h after administration
  Body temperature (° C.): 38.92 ± 0.35 °C
  antipyretic percentage (%): −1.7 ± 0.77 %
[5]; 3 h after administration
  Body temperature (° C.): 38.71 ± 0.20 °C
  antipyretic percentage (%): −2.32 ± 1.41 %
[5]; 4 h after administration
  Body temperature (° C.): 38.49 ± 0.51 °C
  antipyretic percentage (%): −2.88 ± 1.50 %
[6]
  Writhing times: 9.7*
[7]; 30 min
  Swelling ratio (%): 0.110 ± 0.119 %
[7]; 60 min
  Swelling ratio (%): 0.151 ± 0.172 %
[7]; 120 min
  Swelling ratio (%): 0.210 ± 0.178 %
[7]; 180 min
  Swelling ratio (%): 0.330 ± 0.337 %
[7]; 240 min
  Swelling ratio (%): 0.4600 ± 0.289 %
[7]; 300 min
  Swelling ratio (%): 0.681 ± 0.369%
[7]; 360 min
  Swelling ratio (%): 0.623 ± 0.338 %
